# Patent US10745429B2, “Phospholidines that are Bcl family antagonists for use in clinical management of conditions caused or mediated by senescent cells and for treating cancer” (Unity Biotechnology, Inc., priority 2018, dated 2020)
# What was measured:
# [1] = system: 3MR and INK-ATTAC mice exposed to cigarette smoke; experiment: Cigarette smoke induced COPD model, pulse oximetry; assay type: in vivo, mouse; details: after two months of cigarette smoke exposure, compared with untreated controls; FIG. 8
# Description: As a model for chronic obstructive pulmonary disease (COPD), mice were exposed to cigarette smoke.
# The effect of a senolytic agent on the mice exposed to smoke is assessed by senescent cell clearance, lung function, and histopathology.
# The mice used in this study include the 3MR strain, described in US 2017/0027139 A1 and in Demaria et al., Dev Cell. 2014 Dec. 22; 31(6): 722-733. The 3MR mouse has a transgene encoding thymidine kinase that converts the prodrug ganciclovir (GCV) to a compound that is lethal to cells. The enzyme in the transgene is placed under control of the p16 promoter, which causes it to be specifically expressed in senescent cells. Treatment of the mice with GCV eliminates senescent cells.
# Other mice used in this study include the INK-ATTAC strain, described in US 2015/0296755 A1 and in Baker et al., Nature 2011 Nov. 2; 479(7372):232-236. The INK-ATTAC mouse has a transgene encoding switchable caspase 8 under control of the p16 promoter. The caspase 8 can be activated by treating the mice with the switch compound AP20187, whereupon the caspase 8 directly induces apoptosis in senescent cells, eliminating them from the mouse.
# To conduct the experiment, six-week-old 3MR (n=35) or INK-ATTAC (n=35) mice were chronically exposed to cigarette smoke generated from a Teague TE-10 system, an automatically-controlled cigarette smoking machine that produces a combination of side-stream and mainstream cigarette smoke in a chamber, which is transported to a collecting and mixing chamber where varying amounts of air is mixed with the smoke mixture. The COPD protocol was adapted from the COPD core facility at Johns Hopkins University (Rangasamy et al., 2004, J. Clin. Invest. 114:1248-1259; Yao et al., 2012, J. Clin. Invest. 122:2032-2045).
# Mice received a total of 6 hours of cigarette smoke exposure per day, 5 days a week for 6 months. Each lighted cigarette (3R4F research cigarettes containing 10.9 mg of total particulate matter (TPM), 9.4 mg of tar, and 0.726 mg of nicotine, and 11.9 mg carbon monoxide per cigarette [University of Kentucky, Lexington, Ky.]) was puffed for 2 seconds and once every minute for a total of 8 puffs, with the flow rate of 1.05 L/min, to provide a standard puff of 35 cm3. […] The smoke chamber atmosphere was monitored for total suspended particulates (80-120 mg/m3) and carbon monoxide (350 ppm). […]
# After two months of cigarette smoke (CS) exposure, lung function was assessed by monitoring oxygen saturation using the MouseSTAT PhysioSuite™ pulse oximeter (Kent Scientific). […] Mice were monitored for 30 seconds and the average peripheral capillary oxygen saturation (SpO2) measurement over this duration was calculated.
# [2] = system: LDLR-/- mice fed a high fat diet; experiment: Atherosclerosis model, LDLR-/- mice on a high fat diet, systemic treatment; assay type: in vivo, mouse
# Description: This example illustrates the testing of an MDM2 inhibitor in a mouse model for treatment of atherosclerosis. The test compounds are administered systemically rather than locally. The model is done in an LDLR−/− strain of mice, which are deficient in the receptor for low-density lipoprotein. The experiments described here can be adapted mutatis mutandis to test and develop other types of inhibitors for use in clinical therapy.
# Two groups of LDLR−/− mice (10 weeks) are fed a high fat diet (HFD) (Harlan Teklad TD.88137) having 42% calories from fat, beginning at Week 0 and throughout the study. Two groups of LDLR−/− mice (10 weeks) are fed normal chow (−HFD). From weeks 0-2, one group of HFD mice and −HFD mice are treated with Nutlin-3A (25 mg/kg, intraperitoneally). One treatment cycle is 14 days treatment, 14 days off. Vehicle is administered to one group of HFD mice and one group of −HFD mice. At week 4 (timepoint 1), one group of mice are sacrificed and to assess presence of senescent cells in the plaques. For the some of the remaining mice, Nutlin-3A and vehicle administration is repeated from weeks 4-6. At week 8 (timepoint 2), the mice are sacrificed and to assess presence of senescent cells in the plaques. The remaining mice are treated with Nutlin-3A or vehicle from weeks 8-10. At week 12 (timepoint 3), the mice are sacrificed and to assess the level of plaque and the number of senescent cells in the plaques.
# Plasma lipid levels were measured in LDLR−/− mice fed a HFD and treated with Nutlin-3A or vehicle at timepoint 1 as compared with mice fed a −HFD (n=3 per group). Plasma was collected mid-afternoon and analyzed for circulating lipids and lipoproteins.
# At the end of timepoint 1, LDLR−/− mice fed a HFD and treated with Nutlin-3A or vehicle were sacrificed (n=3, all groups), and the aortic arches were dissected for RT-PCR analysis of SASP factors and senescent cell markers. Values were normalized to GAPDH and expressed as fold-change versus age-matched, vehicle-treated LDLR−/− mice on a normal diet.
# At the end of timepoint 2, LDLR−/− mice fed a HFD and treated with Nutlin-3A or vehicle (n=3 for all groups) were sacrificed, and aortic arches were dissected for RT-PCR analysis of SASP factors and senescent cell markers. Values were normalized to GAPDH and expressed as fold-change versus age-matched, vehicle-treated LDLR−/− mice on a normal diet.
# At the end of timepoint 3, LDLR−/− mice fed a HFD and treated with Nutlin-3A or vehicle (n=3 for all groups) were sacrificed, and aortas were dissected and stained with Sudan IV to detect the presence of lipid. Body composition of the mice was analyzed by MRI, and circulating blood cells were counted by Hemavet™.
# [3] = system: C57BL/6J mice with osteoarthritis induced by ACL surgery; experiment: Osteoarthritis model: anterior cruciate ligament surgery, intra-articular treatment; assay type: in vivo, mouse
# Description: The model was implemented as follows. C57BL/6J mice underwent surgery to cut the anterior cruciate ligament of one rear limb to induce osteoarthritis in the joint of that limb. During week 3 and week 4 post-surgery, the mice were treated with 5.8 μg of Nutlin-3A (n=7) per operated knee by intra-articular injection, q.o.d. for 2 weeks. At the end of 4 weeks post-surgery, joints of the mice were monitored for presence of senescent cells, assessed for function, monitored for markers of inflammation, and underwent histological assessment.
# Two control groups of mice were included in the studies performed: one group comprising C57BL/6J or 3MR mice that had undergone a sham surgery (n=3) (i.e., surgical procedures followed except for cutting the ACL) and intra-articular injections of vehicle parallel to the GCV (ganciclovir) treated group; and one group comprising C57BL/6J or 3MR mice that had undergone an ACL surgery and received intra-articular injections of vehicle (n=5) parallel to the GCV-treated group. RNA from the operated joints of mice from the Nutlin-3A treated mice was analyzed for expression of SASP factors (mmp3, IL-6) and senescence markers (p16). qRT-PCR was performed to detect mRNA levels.
# Function of the limbs was assessed 4 weeks post-surgery by a weight bearing test to determine which leg the mice favored. The mice were allowed to acclimate to the chamber on at least three occasions prior to taking measurements. Mice were maneuvered inside the chamber to stand with one hind paw on each scale. The weight that was placed on each hind limb was measured over a three second period. At least three separate measurements were made for each animal at each time point. The results were expressed as the percentage of the weight placed on the operated limb versus the contralateral unoperated limb.
# [4] = system: cancer cells in human patients; details: cited from earlier work
# [5] = system: primary cells from patients with B-cell malignancies; details: in vitro studies; cited from earlier work
smiles,measurement,setting,value
CC[C@H](C(=O)N1CCCC[C@H]1C(=O)O[C@H](CCc1ccc(OC)c(OC)c1)c1cccc(OCC(=O)NCC(CNC(=O)COc2cccc([C@@H](CCc3ccc(OC)c(OC)c3)OC(=O)[C@@H]3CCCCN3C(=O)[C@@H](CC)c3cc(OC)c(OC)c(OC)c3)c2)CN(C)C)c1)c1cc(OC)c(OC)c(OC)c1 [AP2018],peripheral capillary oxygen saturation (SpO2) levels,[1],statistically significant increases
Nc1nc(O)c2ncn(COC(CO)CO)c2n1 [ganciclovir],peripheral capillary oxygen saturation (SpO2) levels,[1],statistically significant increases
COc1ccc(C2=N[C@@H](c3ccc(Cl)cc3)[C@@H](c3ccc(Cl)cc3)N2C(=O)N2CCNC(=O)C2)c(OC(C)C)c1 [Nutlin-3A],peripheral capillary oxygen saturation (SpO2) levels,[1],statistically significant increases
same,"expression of SASP factors and senescent cell markers MMP3, MMP13, PAI1, p21, IGFBP2, IL-1A, IL-1B in the aortic arch (RT-PCR)","[2]; 25 mg/kg intraperitoneally, timepoint 1 (week 4), after one treatment cycle",reduced expression of several SASP factors and senescent cell markers
same,expression of SASP factors and senescent cell markers in the aortic arch (RT-PCR),"[2]; 25 mg/kg intraperitoneally, timepoint 2 (week 8), multiple treatment cycles",reduced expression of most markers
same,reduction of the surface area covered by plaques in the descending aorta (Sudan IV),"[2]; 25 mg/kg intraperitoneally, timepoint 3 (week 12), FIG. 9",about 45%
same,body fat composition of mice fed the high fat diet (MRI),[2]; timepoint 3 (week 12),decreased
same,mass of mice fed the high fat diet,[2]; timepoint 3 (week 12),decreased
same,lymphocyte counts versus vehicle treated mice,"[2]; timepoint 3 (week 12), Hemavet",equivalent
same,platelet counts versus vehicle treated mice,"[2]; timepoint 3 (week 12), Hemavet",equivalent
same,presence of senescent cells in the joint,"[3]; 5.8 μg per operated knee intra-articular, 4 weeks post-surgery",cleared senescent cells from the joint
same,weight bearing test: weight placed on the operated limb versus the contralateral unoperated limb,"[3]; 4 weeks post-surgery, effect = favoring the unoperated hind limb, FIG. 6A",abrogated this effect
same,histopathology of joint tissue: destruction of the proteoglycan layer,"[3]; effect = proteoglycan layer destroyed by ACL surgery, FIGS. 6B-6D",completely abrogated this effect
same,"expression of p16 in the tissue (mRNA, qRT-PCR)","[3]; operated joints, 5.8 μg per operated knee intra-articular q.o.d. for 2 weeks, 4 weeks post-surgery, FIG. 5A",reduced the expression back to below the level of the controls
same,"expression of IL-6 in the tissue (mRNA, qRT-PCR)","[3]; operated joints, 5.8 μg per operated knee intra-articular q.o.d. for 2 weeks, 4 weeks post-surgery, FIG. 5B",reduced the expression back to below the level of the controls
same,"expression of MMP13 in the tissue (mRNA, qRT-PCR)","[3]; operated joints, 5.8 μg per operated knee intra-articular q.o.d. for 2 weeks, 4 weeks post-surgery, FIG. 5C",reduced the expression back to below the level of the controls
CN(C)CC[C@H](CSc1ccccc1)Nc1ccc(S(=O)(=O)NC(=O)c2ccc(N3CCN(Cc4ccccc4-c4ccc(Cl)cc4)CC3)cc2)cc1[N+](=O)[O-] [ABT-737],efficacy against cancer cells in human patients,[4],effective against some types of cancer cells
same,sensitivity of primary cells from patients with B-cell malignancies,[5],sensitive
CC1(C)CCC(c2ccc(Cl)cc2)=C(CN2CCN(c3ccc(C(=O)NS(=O)(=O)c4ccc(N[C@H](CCN5CCOCC5)CSc5ccccc5)c(S(=O)(=O)C(F)(F)F)c4)cc3)CC2)C1 [ABT-263],peripheral capillary oxygen saturation (SpO2) levels,[1],statistically significant increases
